# Measured values reported in BindingDB's records for doi:10.1002/(SICI)1098-2396(200002)35:2<79::AID-SYN1>3.0.CO;2-X (Institut De Recherches Servier, 2000).
# Where “and” joins values, the source holds several entries; their conditions need not be identical. Equal entries are not always repeated.
# Tests used:
# [1] = molecular target: T1, 5-hydroxytryptamine receptor 2C (Sus scrofa, UniProt K7GSR7)
# T1 sequence (K7GSR7 whole entry): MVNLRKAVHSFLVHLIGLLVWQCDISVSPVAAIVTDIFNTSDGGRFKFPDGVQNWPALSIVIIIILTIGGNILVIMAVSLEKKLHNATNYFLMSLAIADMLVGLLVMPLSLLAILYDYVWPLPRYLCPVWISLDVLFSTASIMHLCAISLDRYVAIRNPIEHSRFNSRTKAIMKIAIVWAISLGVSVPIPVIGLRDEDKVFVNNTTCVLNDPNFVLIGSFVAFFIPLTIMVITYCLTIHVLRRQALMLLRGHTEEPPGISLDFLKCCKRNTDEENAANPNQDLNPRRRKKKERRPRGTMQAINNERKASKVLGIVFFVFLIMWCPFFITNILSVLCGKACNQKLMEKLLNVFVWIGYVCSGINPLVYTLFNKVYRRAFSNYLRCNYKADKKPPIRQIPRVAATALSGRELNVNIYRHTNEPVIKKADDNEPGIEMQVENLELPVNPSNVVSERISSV
# [2] = molecular target: T2, 5-hydroxytryptamine receptor 3A (Mus musculus, UniProt P23979)
# T2 sequence (P23979 whole entry): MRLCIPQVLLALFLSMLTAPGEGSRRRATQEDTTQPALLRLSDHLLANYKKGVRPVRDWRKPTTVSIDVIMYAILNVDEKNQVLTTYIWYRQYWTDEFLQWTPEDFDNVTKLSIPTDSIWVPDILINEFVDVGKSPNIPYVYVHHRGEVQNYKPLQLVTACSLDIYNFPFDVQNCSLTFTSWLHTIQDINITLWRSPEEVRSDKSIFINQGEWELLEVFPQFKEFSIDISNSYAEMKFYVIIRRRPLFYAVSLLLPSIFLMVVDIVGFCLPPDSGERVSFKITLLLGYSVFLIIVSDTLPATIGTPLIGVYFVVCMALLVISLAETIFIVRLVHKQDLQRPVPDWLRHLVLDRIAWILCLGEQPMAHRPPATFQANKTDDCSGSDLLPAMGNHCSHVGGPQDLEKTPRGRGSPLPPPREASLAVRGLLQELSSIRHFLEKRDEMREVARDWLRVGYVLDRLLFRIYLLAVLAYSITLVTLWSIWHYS
# [3] = molecular target: T3, Alpha-2A adrenergic receptor (Homo sapiens, UniProt P08913)
# T3 sequence (P08913 whole entry): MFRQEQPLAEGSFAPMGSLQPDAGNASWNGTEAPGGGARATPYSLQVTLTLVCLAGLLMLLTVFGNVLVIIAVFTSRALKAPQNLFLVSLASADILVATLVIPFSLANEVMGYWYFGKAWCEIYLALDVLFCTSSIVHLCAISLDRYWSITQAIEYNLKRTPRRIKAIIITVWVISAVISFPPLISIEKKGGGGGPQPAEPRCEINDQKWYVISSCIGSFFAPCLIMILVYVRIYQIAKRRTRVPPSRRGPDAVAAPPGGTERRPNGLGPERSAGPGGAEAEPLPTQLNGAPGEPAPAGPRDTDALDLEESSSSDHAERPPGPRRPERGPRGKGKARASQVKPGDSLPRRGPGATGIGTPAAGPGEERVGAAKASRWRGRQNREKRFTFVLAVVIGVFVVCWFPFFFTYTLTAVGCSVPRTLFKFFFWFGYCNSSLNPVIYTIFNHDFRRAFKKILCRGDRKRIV
# [4] = molecular target: 5-hydroxytryptamine receptor 1B (Cavia porcellus, UniProt O08892)
# Chain of 5-hydroxytryptamine receptor 1B (O08892 whole entry): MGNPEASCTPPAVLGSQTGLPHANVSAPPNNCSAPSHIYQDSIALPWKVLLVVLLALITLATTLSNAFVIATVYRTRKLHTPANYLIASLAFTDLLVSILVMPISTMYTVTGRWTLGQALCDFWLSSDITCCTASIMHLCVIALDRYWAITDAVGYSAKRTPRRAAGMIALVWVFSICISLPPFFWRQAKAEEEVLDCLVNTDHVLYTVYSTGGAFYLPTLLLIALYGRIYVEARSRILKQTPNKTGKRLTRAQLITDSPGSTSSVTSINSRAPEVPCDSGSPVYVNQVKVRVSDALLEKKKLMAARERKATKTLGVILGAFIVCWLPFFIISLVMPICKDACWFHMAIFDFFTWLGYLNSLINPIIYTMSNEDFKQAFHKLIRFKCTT
# D(2) dopamine receptor = D(2) dopamine receptor (Homo sapiens, UniProt P14416)
# Chain of D(2) dopamine receptor (P14416 whole entry): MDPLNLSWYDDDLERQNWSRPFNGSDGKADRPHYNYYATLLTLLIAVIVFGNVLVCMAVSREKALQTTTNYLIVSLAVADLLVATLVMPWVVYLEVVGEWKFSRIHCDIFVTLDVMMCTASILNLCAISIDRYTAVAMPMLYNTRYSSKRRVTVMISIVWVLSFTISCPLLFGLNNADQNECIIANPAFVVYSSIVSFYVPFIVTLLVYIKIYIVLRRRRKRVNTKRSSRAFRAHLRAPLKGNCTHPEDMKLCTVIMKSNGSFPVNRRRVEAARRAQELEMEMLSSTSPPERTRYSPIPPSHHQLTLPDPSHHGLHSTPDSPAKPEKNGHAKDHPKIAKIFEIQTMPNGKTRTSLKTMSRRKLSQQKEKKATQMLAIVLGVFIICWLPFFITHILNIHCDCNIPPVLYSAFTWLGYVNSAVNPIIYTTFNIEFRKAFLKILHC
# [5] = molecular target: 5-hydroxytryptamine receptor 1D (Homo sapiens, UniProt P28221)
# Chain of 5-hydroxytryptamine receptor 1D (P28221 whole entry): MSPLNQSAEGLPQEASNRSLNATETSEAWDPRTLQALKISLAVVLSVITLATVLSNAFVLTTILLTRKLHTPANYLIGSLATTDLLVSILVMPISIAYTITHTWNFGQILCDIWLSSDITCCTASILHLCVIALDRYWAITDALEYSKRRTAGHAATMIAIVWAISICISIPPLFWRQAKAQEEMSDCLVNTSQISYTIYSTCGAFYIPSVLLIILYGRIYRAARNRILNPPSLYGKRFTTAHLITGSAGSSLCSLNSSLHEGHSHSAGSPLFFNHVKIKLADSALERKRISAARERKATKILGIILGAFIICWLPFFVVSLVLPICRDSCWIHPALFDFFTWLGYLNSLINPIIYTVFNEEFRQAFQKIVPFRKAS
compound,measurement,setting,value
NCCc1c[nH]c2ccccc12 [1H-indole-3-ethanamine],Ki,[1],79.4 nM
Cc1nccn1CC1CCc2c(c3ccccc3n2C)C1=O (configuration not stated) [NSC_68647],Ki,[2],3.98 nM
COC1(C2=NCCN2)COc2ccccc2O1 (configuration not stated) [RX821002],Ki,[3],1 nM
NCCc1c[nH]c2ccc(O)cc12 [[3H]-5-HT],Ki,[4],2.51 nM
COC(=O)[C@@H]1[C@H]2C[C@H]3c4[nH]c5ccccc5c4CCN3C[C@@H]2CC[C@@H]1O [yohimbic acid methyl ester],Ki,D(2) dopamine receptor,398 nM
same,Ki,[4],50.1 nM
same,Ki,[5],19.9 nM and 25.1 nM
